Calls of active or inactive are those of the source. No cut-off for these calls is given here.
How the values were obtained:
[1] = Toxicity in po dosed patient with chronic lymphocytic leukemia and lymphoma assessed as induction of grade 3 hypersensitivity at 600 mg, po once daily for continuous 21 daysrest; type: organism-based; settings: human, in vivo
[2] = Toxicity in patient with chronic lymphocytic leukemia and lymphoma assessed as incidence of grade more than equal 3 abdominal pain at 600 mg, po qd for 21 days co-administered with paclitaxel and carboplatin during phase 1 open label non-randomized trial relative to control; type: organism-based, Abdomen; settings: human, in vivo, 504 h
[3] = Toxicity in patient with chronic lymphocytic leukemia and lymphoma assessed as incidence of pruritus at 600 mg, po qd for 21 days during phase 1 open label non-randomized trial relative to control; type: organism-based; settings: human, in vivo, 504 h
Homo sapiens [4] = test: In vivo inhibition of PI3K in PBMC of po dosed solid tumor patient administered once daily; type: functional, organism-based
[5] = Toxicity in patient with chronic lymphocytic leukemia and lymphoma assessed as incidence of grade more than equal 3 fatigue at 600 mg, po qd for 21 days during phase 1 open label non-randomized trial relative to control; type: organism-based; settings: human, in vivo, 504 h
[6] = Toxicity in patient with chronic lymphocytic leukemia and lymphoma assessed as incidence of cough at 600 mg, po qd for 21 days co-administered with paclitaxel and carboplatin during phase 1 open label non-randomized trial relative to control; type: organism-based; settings: human, in vivo, 504 h
[7] = Toxicity in patient with chronic lymphocytic leukemia and lymphoma assessed as incidence of neutrophenia at 600 mg, po qd for 21 days co-administered with paclitaxel and carboplatin during phase 1 open label non-randomized trial relative to control; type: organism-based; settings: human, in vivo, 504 h
[8] = Toxicity in patient with chronic lymphocytic leukemia and lymphoma assessed as incidence of anemia at 600 mg, po qd for 21 days during phase 1 open label non-randomized trial relative to control; type: organism-based; settings: human, in vivo, 504 h
[9] = Toxicity in patient with chronic lymphocytic leukemia and lymphoma assessed as incidence of rash at 600 mg, po qd for 21 days co-administered with paclitaxel and carboplatin during phase 1 open label non-randomized trial relative to control; type: organism-based; settings: human, in vivo, 504 h
[10] = Toxicity in patient with chronic lymphocytic leukemia and lymphoma assessed as incidence of diarrhea at 600 mg, po qd for 21 days during phase 1 open label non-randomized trial relative to control; type: organism-based; settings: human, in vivo, 504 h
[11] = Toxicity in patient with chronic lymphocytic leukemia and lymphoma assessed as incidence of fatigue at 600 mg, po qd for 21 days co-administered with paclitaxel and carboplatin during phase 1 open label non-randomized trial relative to control; type: organism-based; settings: human, in vivo, 504 h
[12] = Toxicity in po dosed patient with chronic lymphocytic leukemia and lymphoma assessed as induction of grade 3 rash at 600 mg, po administered once daily for 21 days followed by 7 days rest; type: organism-based; settings: human, in vivo
[13] = Toxicity in po dosed patient with chronic lymphocytic leukemia and lymphoma assessed as induction of grade 3 rash at 600 mg, po administered once daily for continuous 21 days; type: organism-based; settings: human, in vivo, 504 h
[14] = Toxicity in patient with chronic lymphocytic leukemia and lymphoma assessed as incidence of grade more than equal 3 fatigue at 600 mg, po qd for 21 days co-administered with paclitaxel and carboplatin during phase 1 open label non-randomized trial relative to control; type: organism-based; settings: human, in vivo, 504 h
[15] = Toxicity in patient with chronic lymphocytic leukemia and lymphoma assessed as incidence of rash at 600 mg, po qd for 21 days during phase 1 open label non-randomized trial relative to control; type: organism-based; settings: human, in vivo, 504 h
[16] = Toxicity in patient with chronic lymphocytic leukemia and lymphoma assessed as incidence of grade more than equal 3 pruritus at 600 mg, po qd for 21 days co-administered with paclitaxel and carboplatin during phase 1 open label non-randomized trial relative to control; type: organism-based; settings: human, in vivo, 504 h
[17] = Toxicity in patient with chronic lymphocytic leukemia and lymphoma assessed as incidence of dyspnea at 600 mg, po qd for 21 days co-administered with paclitaxel and carboplatin during phase 1 open label non-randomized trial relative to control; type: organism-based; settings: human, in vivo, 504 h
[18] = Toxicity in patient with chronic lymphocytic leukemia and lymphoma assessed as incidence of cough at 600 mg, po qd for 21 days during phase 1 open label non-randomized trial relative to control; type: organism-based; settings: human, in vivo, 504 h
[19] = Toxicity in patient with chronic lymphocytic leukemia and lymphoma assessed as incidence of grade more than equal 3 anemia at 600 mg, po qd for 21 days co-administered with paclitaxel and carboplatin during phase 1 open label non-randomized trial relative to control; type: organism-based; settings: human, in vivo, 504 h
[20] = Toxicity in patient with chronic lymphocytic leukemia and lymphoma assessed as incidence of abdominal pain at 600 mg, po qd for 21 days during phase 1 open label non-randomized trial relative to control; type: organism-based, Abdomen; settings: human, in vivo, 504 h
[21] = Toxicity in patient with chronic lymphocytic leukemia and lymphoma assessed as incidence of hyperglycemia at 600 mg, po qd for 21 days during phase 1 open label non-randomized trial relative to control; type: organism-based; settings: human, in vivo, 504 h
[22] = Toxicity in patient with chronic lymphocytic leukemia and lymphoma assessed as incidence of diarrhea at 600 mg, po qd for 21 days co-administered with paclitaxel and carboplatin during phase 1 open label non-randomized trial relative to control; type: organism-based; settings: human, in vivo, 504 h
Homo sapiens [23] = test: In vivo inhibition of PI3K in tumor tissue of po dosed solid tumor patient administered once daily; type: functional, organism-based
[24] = Toxicity in patient with chronic lymphocytic leukemia and lymphoma assessed as incidence of grade more than equal 3 anemia at 600 mg, po qd for 21 days during phase 1 open label non-randomized trial relative to control; type: organism-based; settings: human, in vivo, 504 h
[25] = Toxicity in patient with chronic lymphocytic leukemia and lymphoma assessed as incidence of grade more than equal 3 pyrexia at 600 mg, po qd for 21 days co-administered with paclitaxel and carboplatin during phase 1 open label non-randomized trial relative to control; type: organism-based; settings: human, in vivo, 504 h
[26] = Toxicity in patient with chronic lymphocytic leukemia and lymphoma assessed as incidence of grade more than equal 3 cough at 600 mg, po qd for 21 days co-administered with paclitaxel and carboplatin during phase 1 open label non-randomized trial relative to control; type: organism-based; settings: human, in vivo, 504 h
[27] = Toxicity in patient with chronic lymphocytic leukemia and lymphoma assessed as incidence of dyspnea at 600 mg, po qd for 21 days during phase 1 open label non-randomized trial relative to control; type: organism-based; settings: human, in vivo, 504 h
[28] = Toxicity in patient with chronic lymphocytic leukemia and lymphoma assessed as incidence of grade more than equal 3 neutrophenia at 600 mg, po qd for 21 days co-administered with paclitaxel and carboplatin during phase 1 open label non-randomized trial relative to control; type: organism-based; settings: human, in vivo, 504 h
Homo sapiens [29] = test: In vivo inhibition of PI3K in skin of po dosed solid tumor patient administered once daily; type: functional, organism-based
Homo sapiens [30] = test: In vivo inhibition of PI3K in hair follicle of po dosed solid tumor patient administered once daily; type: functional, organism-based
[31] = Toxicity in po dosed patient with chronic lymphocytic leukemia and lymphoma assessed as induction of grade 3 hypersensitivity at 600 mg, po administered once daily for 21 days followed by 7 days rest; type: organism-based; settings: human, in vivo
[32] = Toxicity in patient with chronic lymphocytic leukemia and lymphoma assessed as incidence of grade more than equal 3 dyspnea at 600 mg, po qd for 21 days co-administered with paclitaxel and carboplatin during phase 1 open label non-randomized trial relative to control; type: organism-based; settings: human, in vivo, 504 h
[33] = Toxicity in patient with chronic lymphocytic leukemia and lymphoma assessed as incidence of hyperglycemia at 600 mg, po qd for 21 days co-administered with paclitaxel and carboplatin during phase 1 open label non-randomized trial relative to control; type: organism-based; settings: human, in vivo, 504 h

SMILES: COc1ccc(Cl)c(Nc2nc3ccccc3nc2NS(=O)(=O)c2cccc(NC(=O)C(C)(C)N)c2)c1 [PILARALISIB]
- Activity [1]: Toxic
- Activity [2]: 0%
- Activity [3]: 4%
- inhibition (Homo sapiens [4]): Active
- Activity [5]: 0%
- Activity [6]: 0%
- Activity [7]: 4%
- Activity [8]: 4%
- Activity [9]: 3%
- Activity [10]: 12%
- Activity [11]: 0%
- Activity [12]: Toxic
- Activity [13]: Toxic
- Activity [14]: 0%
- Activity [15]: 4%
- Activity [16]: 0%
- Activity [17]: 0%
- Activity [18]: 6%
- Activity [19]: 0%
- Activity [20]: 4%
- Activity [21]: 4%
- Activity [22]: 7%
- inhibition (Homo sapiens [23]): Active
- Activity [24]: 3%
- Activity [25]: 0%
- Activity [26]: 0%
- Activity [27]: 4%
- Activity [28]: 4%
- inhibition (Homo sapiens [29]): Active
- inhibition (Homo sapiens [30]): Active
- Activity [31]: Toxic
- Activity [32]: 0%
- Activity [33]: 4%

From ChEMBL document CHEMBL3882389, “Phosphatidylinositol 3-Kinase Inhibitors for the Treatment of Lymphoproliferative Malignancies” (2014)
